# Read-outs that look alike come from different tables or passages of the source.
# Key:
# [1] = target: T1, Full length wild-type cereblon CRBN (Homo sapiens, UniProt Q96SW2); experiment: Fluorescence polarization (FP) assay, cereblon binding
# T1 construct: Full length wild-type cereblon CRBN (80.0 nM, 10 μL) was incubated in assay buffer
# How it was run: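 Full-length wild-type human CRBN (80.0 nM) was preincubated with compound for 30 min at room temperature in 20 mM HEPES pH 8.0, 150 NaCl, 0.5 mM TCEP and 0.05% Tween 20. A Cy5-type thalidomide-linked fluorescent probe was then added. The FP signal was normalized to the DMSO control to derive IC50.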
# GSPT1 = GSPT1 (Homo sapiens, UniProt P15170+Q96SW2); experiment: Western blot selectivity assay in MM1S cells: GSPT1; type: cell-based; parameters: endogenous in cells; host or cells: MM1S (ATCC CRL-2974); conditions: MM1S cells, 0.3, 3 and 30 μM, 6 hours
# Sequence of GSPT1 (P15170 whole entry): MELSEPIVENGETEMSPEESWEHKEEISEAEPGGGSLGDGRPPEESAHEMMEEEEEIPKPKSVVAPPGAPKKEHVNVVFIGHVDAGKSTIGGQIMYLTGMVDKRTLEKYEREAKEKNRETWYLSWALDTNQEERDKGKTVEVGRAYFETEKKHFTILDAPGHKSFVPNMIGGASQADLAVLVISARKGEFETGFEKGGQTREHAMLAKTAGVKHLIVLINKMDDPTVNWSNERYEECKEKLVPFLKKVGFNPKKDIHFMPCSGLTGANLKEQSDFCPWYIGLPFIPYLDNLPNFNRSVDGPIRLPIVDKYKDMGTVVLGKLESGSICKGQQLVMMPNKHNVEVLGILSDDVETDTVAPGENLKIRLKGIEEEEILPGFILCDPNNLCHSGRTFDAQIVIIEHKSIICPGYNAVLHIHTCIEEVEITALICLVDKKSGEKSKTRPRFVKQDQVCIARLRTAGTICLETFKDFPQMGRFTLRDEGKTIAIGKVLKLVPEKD
# Sequence of GSPT1 (Q96SW2 whole entry): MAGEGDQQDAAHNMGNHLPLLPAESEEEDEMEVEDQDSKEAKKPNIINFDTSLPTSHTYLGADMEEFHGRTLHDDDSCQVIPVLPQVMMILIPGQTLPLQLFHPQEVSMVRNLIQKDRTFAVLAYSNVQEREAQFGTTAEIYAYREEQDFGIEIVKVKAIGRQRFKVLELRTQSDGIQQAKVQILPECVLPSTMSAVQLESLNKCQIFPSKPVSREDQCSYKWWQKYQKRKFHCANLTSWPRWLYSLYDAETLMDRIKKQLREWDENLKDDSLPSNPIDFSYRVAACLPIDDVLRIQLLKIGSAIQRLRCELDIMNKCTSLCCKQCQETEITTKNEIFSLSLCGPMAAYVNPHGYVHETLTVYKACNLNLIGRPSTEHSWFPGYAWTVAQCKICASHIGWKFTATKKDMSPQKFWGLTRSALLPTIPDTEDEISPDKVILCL
# Sequence of GSPT1 (Q16531 2-1140 partner limits assumed): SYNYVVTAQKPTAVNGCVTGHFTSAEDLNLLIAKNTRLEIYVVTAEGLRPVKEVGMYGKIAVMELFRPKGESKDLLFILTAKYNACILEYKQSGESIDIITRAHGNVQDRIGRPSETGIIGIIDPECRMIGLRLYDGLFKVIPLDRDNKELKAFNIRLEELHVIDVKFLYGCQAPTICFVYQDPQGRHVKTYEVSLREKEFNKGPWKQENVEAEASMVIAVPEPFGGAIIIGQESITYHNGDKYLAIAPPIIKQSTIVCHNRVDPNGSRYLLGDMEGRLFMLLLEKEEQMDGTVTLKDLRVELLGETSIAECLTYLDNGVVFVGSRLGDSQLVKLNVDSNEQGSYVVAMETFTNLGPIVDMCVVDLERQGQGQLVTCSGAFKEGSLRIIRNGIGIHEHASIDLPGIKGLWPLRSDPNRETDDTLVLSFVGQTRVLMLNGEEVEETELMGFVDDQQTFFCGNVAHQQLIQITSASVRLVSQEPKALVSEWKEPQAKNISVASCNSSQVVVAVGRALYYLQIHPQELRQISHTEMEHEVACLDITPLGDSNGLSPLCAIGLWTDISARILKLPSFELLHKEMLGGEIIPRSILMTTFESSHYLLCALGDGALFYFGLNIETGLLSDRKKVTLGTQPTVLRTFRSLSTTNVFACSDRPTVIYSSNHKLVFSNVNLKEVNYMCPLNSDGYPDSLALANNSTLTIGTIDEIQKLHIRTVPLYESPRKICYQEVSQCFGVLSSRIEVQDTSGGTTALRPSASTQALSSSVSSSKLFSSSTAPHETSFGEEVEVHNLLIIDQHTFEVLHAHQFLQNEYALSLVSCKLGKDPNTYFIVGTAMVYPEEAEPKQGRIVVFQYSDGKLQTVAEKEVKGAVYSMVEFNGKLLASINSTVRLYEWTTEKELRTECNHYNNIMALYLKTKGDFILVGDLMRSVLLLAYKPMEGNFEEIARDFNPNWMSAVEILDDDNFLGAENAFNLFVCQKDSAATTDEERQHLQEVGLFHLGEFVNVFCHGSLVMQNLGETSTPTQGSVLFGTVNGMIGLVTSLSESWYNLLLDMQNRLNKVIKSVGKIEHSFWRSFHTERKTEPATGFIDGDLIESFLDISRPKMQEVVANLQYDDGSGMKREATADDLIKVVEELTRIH
# Procedure: (§1) MM1S cells were purchased from ATCC (cat. Number CRL-2974), sub-cultured in 90% RPMI 1640 with 10% FBS, supplemented with 1×P/S and incubated at 37° C., 5% CO2. Compounds were stored as 10 mM DMSO stock. For the assay, MM1S cells (3 million cells/well) were plated in 6-well plates and incubated over night. Cells were treated with respective compounds using a serial dilution: 0.3 μM, 3 μM and 30 μM as well as a vehicle only (DMSO) control for 6 hours. Media with suspension cells was subsequently transferred to 15 mL conical tubes, wells rinsed twice with ice-cold PBS and merged with cell suspension in respective 15 mL conical tube. Cells were spinned down, supernatant aspirated, pellets resuspended in ice-cold PBS and transferred to microtubes. Cells were spinned down, supernatant aspirated and pellets resuspended in 120 μL RIPA lysis buffer supplemented with protease and phosphatase inhibitors. Cell lysates were incubated on ice for 20 minutes followed by centrifugation at >20,000×g for 5 min. Supernatants were transferred to fresh microtubes and stored at −80° C. Total protein concentration was determined using a BCA assay with a BSA standard curve and concentration of all samples was adjusted to 1 mg/mL. 25 μL 4×LDS sample buffer supplemented with 100 mM DTT was added to 75 μL sample. Samples were centrifuged (8,000×g, 1 min) and incubated at 95° C. for 5 min followed by another centrifugation step (8,000×g, 1 min). 20 μL of each sample was loaded on a 4-12% gel alongside a protein molecular weight marker. Gels were run in the presence of MOPS buffer at 80 Volts for 30 min, followed by 120 Volts for 1.5 h and proteins subsequently transferred onto nitrocellulose membranes at 20 Volts for 7 min using an iBlot2 Gel Transfer Device. Membranes were then cut horizontally into two pieces, covering 80-50 kDa and 50-25 kDa. Blocking the membranes was performed by gently shaking in 5% (w/v) skim milk in TSB-T for 1 hr at room temperature. All primary antibodies were used at a 1/1000 in 5% (w/v) BSA dissolved in TBST and incubated with membranes over night at 4° C. Anti-IKZF1 (Ikaros; D6N9Y; 14859S), anti-IKZF3 (Aiolos; D1C1E; 15103S) antibodies were purchased from Cell Signalling Technology, anti-ZFP91 antibody from Bethyl laboratories, anti-GSPT1 from Sigma Aldrich (HPA052488) and anti CK1alpha from AbCam (ab206652). After three washes with 1×TBST for 5 min, HRP-coupled secondary antibodies diluted in 5% (w/v) BSA/TBST (Goat Anti-Rb IgG, dil. 1/10,000; Goat Anti-Mouse IgG, dil. 1/5000) were added for 1 hr at room temperature. After three washes with 1×TBST (5 minutes each), membranes were incubated with ECL reagent for 1 min at room temperature. Chemiluminescence signals were then detected using a LAS-4000 system with default settings and signals quantified using Image Studio Lite software (version 5.2). Membrane parts previously incubated with antibody against CK1alpha were stripped off antibodies by incubating with stripping buffer for 30 minutes followed by three washed with TBST (5 min each), blocking with 5% (w/v) skim milk for 1 hr, and incubation with primary antibody against GAPDH overnight at 4° C. Subsequent washes, incubation with secondary antibody and signal acquisition were performed as described above.
# IKZF1 (Ikaros) = target: T2, IKZF1 (Ikaros) (Homo sapiens, UniProt Q13422); experiment: Western blot selectivity assay in MM1S cells: IKZF1; type: cell-based; parameters: key: A represents a no degradation observed at 30 μM; B represents trace degradation at 30 μM (below 20%); C represents weak degradation at 30 μM (below 50%); D represents degradation at 30 μM (>90%); E represents degradation at 3 μM (>90%); F represents degradation at 0.3 μM (>90%); conditions: MM1S cells, 0.3, 3 and 30 μM, 6 hours
# T2 construct: endogenous in cells; host or cells: MM1S (ATCC CRL-2974)
# T2 sequence (Q96SW2 whole entry partner): as the sequence (Q96SW2 whole entry) above
# T2 sequence (Q16531 2-1140 partner limits assumed): as the sequence (Q16531 2-1140 partner limits assumed) above
# T2 sequence (Q13422 whole entry): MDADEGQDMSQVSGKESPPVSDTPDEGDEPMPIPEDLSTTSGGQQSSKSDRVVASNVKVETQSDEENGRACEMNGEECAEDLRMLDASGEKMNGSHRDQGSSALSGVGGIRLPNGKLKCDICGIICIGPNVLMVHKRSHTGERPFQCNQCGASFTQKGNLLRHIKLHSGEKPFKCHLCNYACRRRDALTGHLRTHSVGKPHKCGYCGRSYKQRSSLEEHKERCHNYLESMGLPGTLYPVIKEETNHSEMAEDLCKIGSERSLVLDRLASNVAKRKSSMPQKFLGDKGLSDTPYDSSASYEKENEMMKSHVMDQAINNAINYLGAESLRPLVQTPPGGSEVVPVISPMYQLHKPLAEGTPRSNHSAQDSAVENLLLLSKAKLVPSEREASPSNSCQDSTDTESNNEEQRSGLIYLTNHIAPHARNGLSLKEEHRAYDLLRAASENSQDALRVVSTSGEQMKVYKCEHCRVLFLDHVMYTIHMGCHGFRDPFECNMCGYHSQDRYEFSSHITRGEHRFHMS
# Procedure: as §1
# IKZF3 (Aiolos) = target: T3, IKZF3 (Aiolos) (Homo sapiens, UniProt Q9UKT9); experiment: Western blot selectivity assay in MM1S cells: IKZF3; type: cell-based; parameters: key: A represents a no degradation observed at 30 μM; B represents trace degradation at 30 μM (below 20%); C represents weak degradation at 30 μM (below 50%); D represents degradation at 30 μM (>90%); E represents degradation at 3 μM (>90%); F represents degradation at 0.3 μM (>90%); conditions: MM1S cells, 0.3, 3 and 30 μM, 6 hours
# T3 construct: endogenous in cells; host or cells: MM1S (ATCC CRL-2974)
# T3 sequence (Q96SW2 whole entry partner): as the sequence (Q96SW2 whole entry) above
# T3 sequence (Q16531 2-1140 partner limits assumed): as the sequence (Q16531 2-1140 partner limits assumed) above
# T3 sequence (Q9UKT9 whole entry): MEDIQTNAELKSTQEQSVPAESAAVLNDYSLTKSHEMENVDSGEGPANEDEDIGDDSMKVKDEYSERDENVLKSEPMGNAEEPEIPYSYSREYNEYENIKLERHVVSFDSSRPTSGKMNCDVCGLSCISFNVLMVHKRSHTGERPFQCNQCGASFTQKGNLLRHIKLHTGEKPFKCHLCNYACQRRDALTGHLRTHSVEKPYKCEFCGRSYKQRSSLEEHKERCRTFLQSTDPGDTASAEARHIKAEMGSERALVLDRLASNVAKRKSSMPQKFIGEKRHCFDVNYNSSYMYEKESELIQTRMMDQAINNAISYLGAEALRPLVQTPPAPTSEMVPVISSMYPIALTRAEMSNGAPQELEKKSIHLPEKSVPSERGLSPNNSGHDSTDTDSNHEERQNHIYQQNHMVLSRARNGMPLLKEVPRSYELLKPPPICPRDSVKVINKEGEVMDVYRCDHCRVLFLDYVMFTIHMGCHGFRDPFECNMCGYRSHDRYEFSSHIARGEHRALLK
# Procedure: as §1, with “After three washes with 1×TBST (5 minutes each), membranes were incubated with ECL reagent for 1 min at room temperature.” left out, “Membrane parts previously incubated with antibody against CK1alpha were stripped off antibodies by incubating with stripping buffer for 30 minutes followed by three washed with TBST (5 min each), blocking with 5% (w/v) skim milk for 1 hr, and incubation with primary antibody against GAPDH overnight at 4° C. Subsequent washes, incubation with secondary antibody and signal acquisition were performed as described above.” left out
# CK1alpha = target: T4, CK1alpha (Homo sapiens, UniProt P48729); experiment: Western blot selectivity assay in MM1S cells: CK1alpha; type: cell-based; parameters: key: A represents a no degradation observed at 30 μM; B represents trace degradation at 30 μM (below 20%); C represents weak degradation at 30 μM (below 50%); D represents degradation at 30 μM (>90%); E represents degradation at 3 μM (>90%); F represents degradation at 0.3 μM (>90%); conditions: MM1S cells, 0.3, 3 and 30 μM, 6 hours
# T4 construct: endogenous in cells; host or cells: MM1S (ATCC CRL-2974)
# T4 sequence (Q96SW2 whole entry partner): as the sequence (Q96SW2 whole entry) above
# T4 sequence (Q16531 2-1140 partner limits assumed): as the sequence (Q16531 2-1140 partner limits assumed) above
# T4 sequence (P48729 whole entry): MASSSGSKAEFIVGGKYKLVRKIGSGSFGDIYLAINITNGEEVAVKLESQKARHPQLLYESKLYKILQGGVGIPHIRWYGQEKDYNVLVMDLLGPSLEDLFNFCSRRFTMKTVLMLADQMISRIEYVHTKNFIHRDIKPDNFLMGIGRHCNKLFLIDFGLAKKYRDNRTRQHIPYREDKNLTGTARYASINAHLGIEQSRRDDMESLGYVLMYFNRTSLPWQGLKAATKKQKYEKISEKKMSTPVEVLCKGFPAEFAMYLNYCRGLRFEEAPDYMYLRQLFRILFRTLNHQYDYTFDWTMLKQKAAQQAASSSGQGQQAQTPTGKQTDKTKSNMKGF
# Procedure: (§2) MM1S cells were purchased from ATCC (cat. Number CRL-2974), sub-cultured in 90% RPMI 1640 with 10% FBS, supplemented with 1×P/S and incubated at 37° C., 5% CO2. Compounds were stored as 10 mM DMSO stock. For the assay, MM1S cells (3 million cells/well) were plated in 6-well plates and incubated over night. Cells were treated with respective compounds using a serial dilution: 0.3 μM, 3 μM and 30 μM as well as a vehicle only (DMSO) control for 6 hours. Media with suspension cells was subsequently transferred to 15 mL conical tubes, wells rinsed twice with ice-cold PBS and merged with cell suspension in respective 15 mL conical tube. Cells were spinned down, supernatant aspirated, pellets resuspended in ice-cold PBS and transferred to microtubes. Cells were spinned down, supernatant aspirated and pellets resuspended in 120 μL RIPA lysis buffer supplemented with protease and phosphatase inhibitors. Cell lysates were incubated on ice for 20 minutes followed by centrifugation at >20,000×g for 5 min. Supernatants were transferred to fresh microtubes and stored at −80° C. Total protein concentration was determined using a BCA assay with a BSA standard curve and concentration of all samples was adjusted to 1 mg/mL. […] Chemiluminescence signals were then detected using a LAS-4000 system with default settings and signals quantified using Image Studio Lite software (version 5.2). […]
# ZFP91 = target: T5, ZFP91 (Homo sapiens, UniProt Q96JP5); experiment: Western blot selectivity assay in MM1S cells: ZFP91; type: cell-based; parameters: key: A represents a no degradation observed at 30 μM; B represents trace degradation at 30 μM (below 20%); C represents weak degradation at 30 μM (below 50%); D represents degradation at 30 μM (>90%); E represents degradation at 3 μM (>90%); F represents degradation at 0.3 μM (>90%); conditions: MM1S cells, 0.3, 3 and 30 μM, 6 hours
# T5 construct: endogenous in cells; host or cells: MM1S (ATCC CRL-2974)
# T5 sequence (Q96SW2 whole entry partner): as the sequence (Q96SW2 whole entry) above
# T5 sequence (Q16531 2-1140 partner limits assumed): as the sequence (Q16531 2-1140 partner limits assumed) above
# T5 sequence (Q96JP5 2-570 limits assumed): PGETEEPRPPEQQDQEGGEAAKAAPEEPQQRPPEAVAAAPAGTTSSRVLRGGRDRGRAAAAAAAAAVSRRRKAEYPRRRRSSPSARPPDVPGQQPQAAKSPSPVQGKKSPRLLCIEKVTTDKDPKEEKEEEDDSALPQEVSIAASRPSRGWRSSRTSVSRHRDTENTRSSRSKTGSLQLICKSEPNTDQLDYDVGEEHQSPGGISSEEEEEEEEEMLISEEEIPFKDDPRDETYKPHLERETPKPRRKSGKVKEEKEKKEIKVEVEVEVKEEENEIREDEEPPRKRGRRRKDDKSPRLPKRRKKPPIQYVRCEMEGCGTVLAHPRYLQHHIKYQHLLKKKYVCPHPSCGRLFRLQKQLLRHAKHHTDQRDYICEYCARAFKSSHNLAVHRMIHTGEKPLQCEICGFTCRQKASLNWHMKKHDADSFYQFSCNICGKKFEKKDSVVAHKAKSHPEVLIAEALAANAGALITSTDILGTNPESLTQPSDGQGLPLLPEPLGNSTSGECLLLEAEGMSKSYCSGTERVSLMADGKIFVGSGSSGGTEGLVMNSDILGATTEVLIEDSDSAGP
# Procedure: as §2
# [2] = bounds stated in the text lists b2059-b2061, read-out: IC50 value
# [3] = cereblon binding, class code, read-out: rFP IC50
# T1 sequence (Q96SW2 whole entry): as the sequence (Q96SW2 whole entry) above
"IC50 [1, 2]","IC50 [1, 3]",IKZF1 degradation (IKZF1 (Ikaros)),IKZF3 degradation (IKZF3 (Aiolos)),CK1alpha degradation (CK1alpha),ZFP91 degradation (ZFP91),Structure (SMILES),GSPT1 degradation (GSPT1)
< 1.7 µM,0.5 to 1.1 µM,A,,A,,Cc1ncc(NC(=O)OCc2ccc3c(c2)C(=O)N(C2CCC(=O)NC2=O)C3)cc1Cl (stereo not shown) [Compound 6],F (F represents degradation at 0.3 μM (>90%))
< 1.7 µM,1.1 to 1.7 µM,A,A,,,CC(C)(C)c1ccc(NC(=O)OCc2ccc3c(c2)C(=O)N(C2CCC(=O)NC2=O)C3)cc1 (stereo not shown) [Compound 47],F (F represents degradation at 0.3 μM (>90%))

# The remaining lines, values behind:
Structure (SMILES),"IC50 [1, 2]","IC50 [1, 3]",IKZF1 degradation (IKZF1 (Ikaros)),IKZF3 degradation (IKZF3 (Aiolos)),CK1alpha degradation (CK1alpha),ZFP91 degradation (ZFP91),GSPT1 degradation (GSPT1)
O=C1CCC(N2Cc3ccc(COC(=O)Nc4cccc(OC(F)(F)F)c4)cc3C2=O)C(=O)N1 (stereo not shown) [Compound 3],< 1.7 µM,1.1 to 1.7 µM,A,A,,,F (F represents degradation at 0.3 μM (>90%))
CCc1ncc(NC(=O)OCc2ccc3c(c2)C(=O)N(C2CCC(=O)NC2=O)C3)cc1C (stereo not shown) [Compound 49],< 1.7 µM,1.1 to 1.7 µM,A,A,,,F (F represents degradation at 0.3 μM (>90%))
COc1cc(C)c(Cl)cc1NC(=O)OCc1ccc2c(c1)C(=O)N(C1CCC(=O)NC1=O)C2 (stereo not shown) [Compound 1],< 1.7 µM,1.1 to 1.7 µM,A,,,A,F (F represents degradation at 0.3 μM (>90%))

# Reference: patent US20230348418A1, “ISOINDOLINONE COMPOUNDS” (Monte Rosa Therapeutics, Inc., priority 2021, published 2023)
